Results on eight molecules are retold here after publication PMC10298051, “Hyperoside as a UV Photoprotective or Photostimulating Compound—Evaluation of the Effect of UV Radiation with Selected UV-Absorbing Organic Compounds on Skin Cells” (International Journal of Molecular Sciences, 2023).

Series [1] relates to HaCaT cells. Kind of series: Cytotoxicity (MTT) of UV-absorbing compounds in HaCaT culture without irradiation. As to conditions: for cell viability (not reduced below): at 300 μM. The format is cell-based, human. How it is done:
(§1) The immortalized human keratinocytes HaCaT and reconstituted three-dimensional human epidermis model (EpiDerm, MatTek Europe, SVK) were grown in high-glucose DMEM (Sigma-Aldrich, Burlington, MA, USA) supplemented with sodium bicarbonate (3.7 g/L, Sigma-Aldrich, Burlington, MA, USA), fetal bovine serum (10% v/v, Biowest, France), and penicillin and streptomycin (100 U/mL and 100 μg/mL, respectively, Sigma-Aldrich, Burlington, MA, USA) in darkness under a humidified atmosphere with 5% CO2 at 37 °C. For all experiments, HaCaT was dissociated using TrypLE Express (Gibco by Thermo Fisher Scientific, Waltham, MA, USA) and transferred into 12-well plates at a total number of 1 × 10^5 cells and cultivated for 24 h. The UV sources with relatively homogeneous irradiance were made from commercially available phototherapeutic UV tubes [13]. […] The irradiance values were 6.8 ± 0.4 mW/cm^2 for the UVA source and 3.5 ± 0.4 mW/cm^2 for the UVB source.
(§2) HaCaT cells and Epiderm were incubated for 18 h in DMEM supplemented with UV-absorbing compounds. Irradiation of the culture cells was performed in 0.6 mL/well phosphate-buffered saline (PBS) supplemented with 5 mM glucose (PBS-G) in 12-well plates. In the case of the 3D epidermal models, for irradiation, 3 inserts were always placed in one well of a 6-well plate filled with 0.9 mL of PBS-G; otherwise, they were kept separately in a 24-well plate with 0.3 mL of DMEM per well. After irradiation, PBS was replaced with fresh DMEM and the plates with cells were placed in a CO2 incubator for 18 h. The MTT assay was initiated by adding 5 mg/mL of methylthiazol tetrazolium bromide (MTT, Sigma-Aldrich) to DMEM, resulting in a 10-fold lower concentration of MTT in each well. After 3 h, the medium was completely removed and the formazan crystals produced by the cells were dissolved in 0.6 mL of DMSO for cell cultures or in 2 mL of isopropanol for epidermal models. The absorbance of these solutions was spectroscopically measured at 570 nm.

Assay in series [2]: as above
Type of series: cell-based, human. As to conditions: human, HaCaT keratinocytes, MTT, no irradiation, mean of 3 measurements. How it is done:
as §1, §2

For the next series, the system named is epidermis model EpiDerm. Kind of series: MTT viability of pre-treated 3D epidermis model EpiDerm after UVA or UVB exposure. Type of series: cell-based, human. The following applies: 30 μM hyperoside or 100 μM trans-urocanic acid; 18 h or 42 h pre-incubation; UVA 24 or 36 J/cm^2. How it is done:
Control samples without the presence of the compounds are marked as C. Each value represents mean ± S.E. from 3 measurements. * Significant difference compared to the sample without UV-absorbing compound (p < 0.05).
as §1
[…] The absorbance of these solutions was spectroscopically measured at 570 nm. The relative number of viable (oxidoreductase active) cells in the treated and untreated samples (controls) was expressed as a percentage.

Series [3] has as its system HaCaT cells. Kind of series: Phototoxicity test: MTT viability of pre-treated HaCaT cells after UVA or UVB exposure. Type of series: cell-based, human. As to conditions: 18 h pre-incubation; for change in cell viability after UVA: UVA 60 min 24 J/cm^2, vs irradiated sample without compound. How it is done: In the next study, HaCaT cells were incubated with two apparently non-toxic concentrations of these UV-absorbing compounds for 18 h and then their effect on the viability of HaCaT cells exposed to UVA (for 60 min at a dose of 24 J/cm^2) and UVB radiation for 3 min (at a dose of 0.6 J/cm^2) was monitored.
as §1, §2

The subject of series [4] is HaCaT cells. Kind of series: Mitochondrial membrane potential (JC-1) in pre-treated HaCaT cells after UVA or UVB. The format is cell-based, human. The following applies: JC-1, concentration-dependent, UVA 24 J/cm^2 or UVB 1.2 J/cm^2. How it is done: The mitochondrial membrane potential in HaCaT cells was estimated using the fluorescent probe 5,5′,6,6′-tetrachloro-1,1′,3,3′ tetraethylbenzimidazolylcarbocyanine chloride (JC-1, Biotium, Fremont, CA, USA). After UV irradiation in PBS-G, JC-1 was added to the cells at the final assay concentration of 2 μg/mL and the cells were allowed to incubate for 20 min. Then, the fluorescence emission intensity was measured using a Tecan Infinite 200pro fluorescence reader at excitation and emission wavelengths of 490 nm and 590 nm, respectively.

Series [5] deals with PANC-1 (pancreatic cancer). Set-up: method as in PMID 26676634. As to conditions: PANC-1, 24 h; read-out: concentration that halved cell viability; cited from earlier work.
Series [6] deals with H1975 (non-small cell lung cancer). The following applies: H1975, 24 h; read-out: concentration that halved cell viability; cited from earlier work.
The test system of series [7] is A549 (lung adenocarcinoma). Further details: method as in PMID 31881478. As to conditions: A549, 24 h; read-out: concentration that halved cell viability; cited from earlier work.
For series [8], the system named is HaCaT cells. Kind of series: Intracellular ROS production (CM-H2DCFDA) in pre-treated HaCaT cells after UVA or UVB. As to conditions: for ROS production during UVA exposure: UVA 60 min 24 J/cm^2. The format is cell-based, human. How it is done: The production of the intracellular ROS induced by UVA or UVB after 18 h of incubation with UV-absorbing compounds was analyzed using the fluorescence probe 5-(and-6)-chloromethyl-2′,7′-dichlorodihydrofluorescein diacetate (CM-H2DCFDA, Invitrogen by Thermo Fisher Scientific, Waltham, MA, USA). The HaCaT cells were incubated in PBS-G buffer supplemented with 10 μM CM-H2DCFDA for 20 min and then, after washing twice in PBS-G, exposed to UVA or UVB radiation for 60 or 3 min. After irradiation, the fluorescence of CM-DCF was recorded using a Tecan Infinite 200 pro fluorescence reader (Tecan, Männedorf, Switzerland) at excitation and emission wavelengths 490 nm and 525 nm, respectively.

Series [9] has as its system HaCaT cells. Kind of series: Comet assay of DNA fragmentation in pre-treated HaCaT cells after UVA or UVB. The format is cell-based, human. As to conditions: UVA 90 min 36 J/cm^2, HMBP 30 μM, 4-MBC 10 μM, t-UCA 300 μM, Ast 100 μM, Hyp 300 μM. How it is done:
DNA damage caused by UVA or UVB radiation to the HaCaT cells pre-treated with UV-absorbing compounds was investigated by a comet assay. The growth medium was replaced by PBS-G and the cells were irradiated by means of the UVA or UVB sources for 90 or 8 min, respectively. After irradiation, PBS-G medium was replaced with DMEM and the cells were allowed to culture for 24 h. The Comet assay was performed as previously described by Manisova and her co-workers. The samples were finally stained by SYBR Green (Invitrogen, Thermo Fisher Scientific, Waltham, MA, USA) and manually scored using an Olympus IX 70 inverted fluorescence microscope with a CCD camera (Olympus, JPN) and CometScore 2.0 software (TriTek, Wilmington, DE, USA). Approximately 100 cells were randomly selected from each sample to assess DNA damage. The amount of DNA in the head (corresponding to low fragmentation) was evaluated.

In series [10] the test system is HaCaT cells. Kind of series: Atomic force microscopy of HaCaT cell morphology after UV irradiation. As to conditions: 50 µM for 4 h. The format is cell-based, human. How it is done: The size of HaCaT cells acquired by an atomic force microscope was calculated from 20 cells in an average using the NanoScope Analysis software. Cell diameter was measured along the longest part of the cell. Cells were first incubated with 50 µM hyperoside for 4 h and then irradiated with UVA radiation. […] Irradiating the cells by UV led to cluster disruption and changes in shape. It caused cell swelling, resulting in a decrease in the diameter (19.16 μm for UVA; 23.13 μm for UVB), an increase in the height (4.24 μm for UVA; 3.44 μm for UVB), and an overall elliptic shape compared to control cells (Figure 9). However, the pre-treatment of the cells with hyperoside prevented cells from those UVA-induced morphological changes. After the irradiation, the cells still formed clusters and there were no significant changes in the median of the diameter (29.87 μm) and median of the height (2.24 μm).
HaCaT cells were seeded in Petri dishes (Willco, NLD) containing 2 mL of DMEM. The following day, the cells were exposed to UVA for 90 min and UVB for 20 min. Some cells were pre-incubated with 50 μM hyperoside for 4 h. Before irradiation, the growth medium was replaced with fresh DMEM. Immediately after irradiation, AFM measurements were performed using a Bioscope Catalyst atomic force microscope (Bruker, Billerica, MA, USA). The size of the cell scan was 100 × 100 μm and the scan rate was 0.2–0.3 Hz. […]

The mark [11] stands for this setting: 100 μM, UVB 3 min 0.6 J/cm^2, vs irradiated sample without compound.

On to `O=C(O)/C=C/c1c[nH]cn1` [trans-urocanic acid], for which the “cell viability (not reduced below)” value in the series on HaCaT cells [1] is reported as at least 60%. The same molecule returned an IC50 at 18 h in series [2] of 1100 µM. For the same molecule, in the series on epidermis model EpiDerm, the “change in viability of EpiDerm after UVA irradiation” value is “no similar effect was observed”. Further, the “change in cell viability after UVA” value in the series on HaCaT cells [3] (100 μM) was “only linked with UVB radiation”. The “change in cell viability after UVB” value with HaCaT cells [3] (setting [11]) was “statistically significant increase in cell viability”.

As for `O=C(c1ccccc1)c1ccc(O)cc1O` [2,4-dihydroxybenzophenone], the IC50 at 18 h in [2] was 85 µM. For the same molecule, the “change in mitochondrial membrane potential after UV” value with HaCaT cells [4] is given as “higher values of the mitochondrial membrane potential”.

`COc1cc(O)c2c(=O)c(OC)c(-c3ccc(O)c(OC)c3)oc2c1` [pachypodol]: the “reduction in cell viability” value with HaCaT cells [1] (at 10 μM) is recorded as above 50%. The molecule further displayed an IC50 at 18 h in series [2] of 5.1 µM. In the series with HaCaT cells [3] (apparently non-toxic concentrations, UVB 0.6 J/cm^2), the “change in cell viability after UVB” value was “cell viability decreased significantly”.

`O=c1c(O[C@@H]2O[C@H](CO)[C@H](O)[C@H](O)[C@H]2O)c(-c2ccc(O)c(O)c2)oc2cc(O)cc(O)c12` [hyperoside]: the results for the IC50 in series [5], in series [6] and in [7] were around 550 µM, around 100 µM and around 400 µM, respectively. Besides, the “cell viability (not reduced below)” value in the series with HaCaT cells [1] is reported as at least 60%. In addition, in series [2], the IC50 at 18 h was above 300 µM. Further, the “change in mitochondrial membrane potential after UV” value in the series on HaCaT cells [4] is “opposite effect”. Further, the “change in viability of EpiDerm after UVA irradiation” value in the series on epidermis model EpiDerm is on record as “significantly increased its viability”. For the same molecule, in the series with HaCaT cells [8] (100 μM), the “ROS production during UVA exposure” value is given as “statistically significant decrease in ROS production”. In addition, in the series with HaCaT cells [8] (30 and 100 μM, UVB 3 min 0.6 J/cm^2), the “ROS induced by UVB irradiation” value is recorded as “effective in reducing ROS”. Further, the “DNA fragmentation after UVA (percentage of DNA in comet heads)” value with HaCaT cells [9] is given as “reduction in DNA fragmentation”. Besides, the “median of the cell height after UVA” value with HaCaT cells [10] (then UVA 36 J/cm^2, untreated control 2.02 μm, UVA alone 4.24 μm) was found to be 2.24 μm. The “median of the cell diameter after UVA” value in the series with HaCaT cells [10] (then UVA 36 J/cm^2, untreated control 31.21 μm, UVA alone 19.16 μm) is on record as 29.87 μm. The “change in cell viability after UVA” value in the series on HaCaT cells [3] (100 μM) is “also observed for UVA radiation, although to a lesser extent”. Also, the “change in cell viability after UVB” value in the series on HaCaT cells [3] (setting [11]) is recorded as “statistically significant increase in cell viability”.

Consider `CC1=C(/C=C/C(C)=C/C=C/C(C)=C/C=C/C=C(C)/C=C/C=C(C)/C=C/C2=C(C)CCCC2(C)C)C(C)(C)CCC1` [beta-carotene], for which the IC50 at 18 h in series [2] is 7.3 µM. In the series with HaCaT cells [4], the “change in mitochondrial membrane potential after UV” value was “higher values of the mitochondrial membrane potential”.

`O=c1c(O[C@@H]2O[C@H](CO)[C@@H](O)[C@H](O)[C@H]2O)c(-c2ccc(O)cc2)oc2cc(O)cc(O)c12` [astragalin]: in series [2], the IC50 at 18 h came out at 78 µM. The “DNA fragmentation after UVA (percentage of DNA in comet heads)” value in the series with HaCaT cells [9] is recorded as “reduction in DNA fragmentation”.

In turn, `Cc1ccc(C=C2C(=O)C3(C)CCC2C3(C)C)cc1` (stereo not shown) [3-(4-methylbenzylidene)camphor] registered an IC50 at 18 h in series [2] of 28 µM. The “ROS production during UVA exposure” value with HaCaT cells [8] (3 and 10 μM) is given as “statistically significant decrease in ROS production”. The “DNA fragmentation after UVA (percentage of DNA in comet heads)” value in the series on HaCaT cells [9] is given as “reduction in DNA fragmentation”.

For `COc1ccc(C(=O)c2ccccc2)c(O)c1` [2-hydroxy-4-methoxybenzophenone], the IC50 at 18 h in series [2] worked out at 56 µM. Further, the “change in mitochondrial membrane potential after UV” value in the series on HaCaT cells [4] is reported as “higher values of the mitochondrial membrane potential”. Moreover, the “DNA fragmentation after UVA (percentage of DNA in comet heads)” value with HaCaT cells [9] was “reduction in DNA fragmentation”.
